This is an account of results in patent publication US20250092088A1, “PEPTIDE COMPOUND PRODUCTION METHOD” (CHUBU UNIVERSITY EDUCATIONAL FOUNDATION, priority 2022, published 2025).

A short description of the data set: TLC analysis of H-Ala-O-PG to evaluate polarity reduction by protecting groups. The data set is classed as physicochemical. The following applies: hexane/ethyl acetate=2/1, L-Ala with terminal carboxyl protected by PG (H-Ala-O-PG). The text has this: As protecting groups for the terminal carboxyl groups of amino acid/peptide compounds, the silicon-containing hydrophobic substituents TAG1(Si), TAG2(Si), and TAG3(Si) synthesized in Examples 1 to 3, the conventionally known protecting group tBu group, and the previously mentioned TAGa group (alkoxybenzyl ester group) represented by the following formula, which is described in Non-Patent Literature 6 (Org. Process Res. Dev. 2019, Vol. 23, p. 2576-2581), were used to protect the terminal carboxyl of an amino acid (L-Ala), and their effects on polarity reduction were evaluated.

On to `C[C@H](N)C(=O)OC(C)(C)C` [tBu, reference compound], for which the Rf value is on record as 0.07.
